From patent publication US9499550B2 (BRISTOL-MYERS SQUIBB COMPANY, priority 2012, dated 2016) come the findings set out here.

Assay [1] relates to HCV genotype 1b (Con1) replicon in HUH-7 cells. Briefly: HCV replicon luciferase reporter assay, genotype 1b. The class given is cell-based. The settings on record: Hepatitis C virus, Huh-7, 72 h, HCV genotype 1b replicon luciferase, 3 days incubation, read-out: LE_1b (EC50, range). The essentials:
(§1)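 Replicon inhibition for both genotypes was measured as Renilla luciferase signal (EnduRen, 7.5 μM final, 2 h) after 3-day, 37° C exposure of replicon-bearing HUH-7 cells in 4% FCS DMEM, 0.5% DMSO. The 1b construct carries S1179I; the 1a H77 construct carries P1496L and S2204I. Twenty-point, 3-fold dilutions were fitted four-parametrically for EC50, and CC50 was taken from multiplexed Cell Titer-Blue.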
(In antiviral work, replicon cells carry a viral genome segment that copies itself.)

The subject of assay [2] is HCV genotype 1a (H77 strain) replicon in HUH-7 cells. Briefly: HCV replicon luciferase reporter assay, genotype 1a. Type of assay: cell-based. As to conditions: Hepatitis C virus, Huh-7, 72 h, HCV genotype 1a replicon luciferase, 3 days incubation, read-out: LE_1a (EC50, range). The essentials:
as §1

pEC50: −log10 of the molar value.

Turning to `COc1ccc2c(O[C@@H]3C[C@H]4C(=O)N[C@]5(C(=O)NS(=O)(=O)C6(C)CC6)C[C@H]5/C=C\CC[C@@H](C)C[C@@H](C)[C@H](NC(=O)OC(C)(C)C(F)F)C(=O)N4C3)nc3c(c2c1)CCCO3` [Compound 6084, 1,1-difluoro-2-methylpropan-2-yl((2R,6S,7R,9R,13aS,14aR,16aS,Z)-2-((9-methoxy-2,3-dihydro-1H-pyrano[2,3-c]isoquinolin-6-yl)oxy)-7,9-dimethyl-14a-(((1-methylcyclopropyl)sulfonyl)carbamoyl)-5,16-dioxo-1,2,3,5,6,7,8,9,10,11,13a,14,14a,15,16,16a-hexadecahydrocyclopropa[e]pyrrolo[1,2-a][1,4]diazacyclopentadecin-6-yl)carbamate], the pEC50 (as a rule, −log10 of the EC50, conventionally taken in molar units) was 9.00 to 9.29 in assay [1] and 9.30 to 10.00 in assay [2].
For `CC[C@@H]1C[C@H](C)CC/C=C\[C@@H]2C[C@@]2(C(=O)NS(=O)(=O)C2(CF)CC2)NC(=O)[C@@H]2C[C@@H](Oc3nc4c(c5cc(OC)ccc35)CCCO4)CN2C(=O)[C@H]1NC(=O)OC(C)(C)C(F)(F)F` [Compound 6086, 1,1,1-trifluoro-2-methylpropan-2-yl((2R,6S,7R,9R,13aS,14aR,16aS,Z)-7-ethyl-14a-(((1-(fluoromethyl)cyclopropyl)sulfonyl)carbamoyl)-2-((9-methoxy-2,3-dihydro-1H-pyrano[2,3-c]isoquinolin-6-yl)oxy)-9-methyl-5,16-dioxo-1,2,3,5,6,7,8,9,10,11,13a,14,14a,15,16,16a-hexadecahydrocyclopropa[e]pyrrolo[1,2-a][1,4]diazacyclopentadecin-6-yl)carbamate], the pEC50 in assay [1] and in assay [2] was 7.46 to 8.30 in each case.
As to `CC[C@@H]1C[C@H](C)CC/C=C\[C@@H]2C[C@@]2(C(=O)NS(=O)(=O)C2(CF)CC2)NC(=O)[C@@H]2C[C@@H](Oc3nc4c(c5cc(OC)ccc35)CCCO4)CN2C(=O)[C@H]1NC(=O)OC(C)(C)C(C)(F)F` [Compound 6088, 3,3-difluoro-2-methylbutan-2-yl((2R,6S,7R,9R,13aS,14aR,16aS,Z)-7-ethyl-14a-(((1-(fluoromethyl)cyclopropyl)sulfonyl)carbamoyl)-2-((9-methoxy-2,3-dihydro-1H-pyrano[2,3-c]isoquinolin-6-yl)oxy)-9-methyl-5,16-dioxo-1,2,3,5,6,7,8,9,10,11,13a,14,14a,15,16,16a-hexadecahydrocyclopropa[e]pyrrolo[1,2-a][1,4]diazacyclopentadecin-6-yl)carbamate], the pEC50 in assay [1] and in assay [2] was 7.46 to 8.30 throughout.
Consider `CC[C@@H]1C[C@H](C)CC/C=C\[C@@H]2C[C@@]2(C(=O)NS(=O)(=O)C2(C)CC2)NC(=O)[C@@H]2C[C@@H](Oc3nc4c(c5cc(OC)ccc35)CCCO4)CN2C(=O)[C@H]1NC(=O)OC(C)(C)C(C)(F)F` [Compound 6090, 3,3-difluoro-2-methylbutan-2-yl((2R,6S,7R,9R,13aS,14aR,16aS,Z)-7-ethyl-2-((9-methoxy-2,3-dihydro-1H-pyrano[2,3-c]isoquinolin-6-yl)oxy)-9-methyl-14a-(((1-methylcyclopropyl)sulfonyl)carbamoyl)-5,16-dioxo-1,2,3,5,6,7,8,9,10,11,13a,14,14a,15,16,16a-hexadecahydrocyclopropa[e]pyrrolo[1,2-a][1,4]diazacyclopentadecin-6-yl)carbamate], for which the pEC50 in assay [1] and in assay [2] was 9.00 to 9.29 throughout.
Consider `CC[C@@H]1C[C@H](C)CC/C=C\[C@@H]2C[C@@]2(C(=O)NS(=O)(=O)C2(C)CC2)NC(=O)[C@@H]2C[C@@H](Oc3nc4c(c5cc(OC)ccc35)CCCO4)CN2C(=O)[C@H]1NC(=O)OC(C)(C)C(F)F` [Compound 6092, 1,1-difluoro-2-methylpropan-2-yl((2R,6S,7R,9R,13aS,14aR,16aS,Z)-7-ethyl-2-((9-methoxy-2,3-dihydro-1H-pyrano[2,3-c]isoquinolin-6-yl)oxy)-9-methyl-14a-(((1-methylcyclopropyl)sulfonyl)carbamoyl)-5,16-dioxo-1,2,3,5,6,7,8,9,10,11,13a,14,14a,15,16,16a-hexadecahydrocyclopropa[e]pyrrolo[1,2-a][1,4]diazacyclopentadecin-6-yl)carbamate], for which the pEC50 in assay [1] and in assay [2] was 8.30 to 9.00 each time.
As to `CC[C@@H]1C[C@H](C)CC/C=C\[C@@H]2C[C@@]2(C(=O)NS(=O)(=O)C2(C)CC2)NC(=O)[C@@H]2C[C@@H](Oc3nc4c(c5cc(OC)ccc35)CCCO4)CN2C(=O)[C@H]1NC(=O)OC(C)(C)C(F)(F)F` [Compound 6095, 1,1,1-trifluoro-2-methylpropan-2-yl((2R,6S,7R,9R,13aS,14aR,16aS,Z)-7-ethyl-2-((9-methoxy-2,3-dihydro-1H-pyrano[2,3-c]isoquinolin-6-yl)oxy)-9-methyl-14a-(((1-methylcyclopropyl)sulfonyl)carbamoyl)-5,16-dioxo-1,2,3,5,6,7,8,9,10,11,13a,14,14a,15,16,16a-hexadecahydrocyclopropa[e]pyrrolo[1,2-a][1,4]diazacyclopentadecin-6-yl)carbamate], the pEC50 is 9.30 to 10.00 in assay [1] and 9.00 to 9.29 in assay [2].
For `CC(C)Oc1cc2ccccc2c(O[C@@H]2C[C@H]3C(=O)N[C@]4(C(=O)NS(=O)(=O)C5(C)CC5)C[C@H]4/C=C\CC[C@@H](C)C[C@@H](C)[C@H](NC(=O)OC(C)(C)C)C(=O)N3C2)n1` [Compound 6098, tert-butyl ((2R,6S,7R,9R,13aS,14aR,16aS,Z)-2-((3-isopropoxyisoquinolin-1-yl)oxy)-7,9-dimethyl-14a-(((1-methylcyclopropyl)sulfonyl)carbamoyl)-5,16-dioxo-1,2,3,5,6,7,8,9,10,11,13a,14,14a,15,16,16a-hexadecahydrocyclopropa[e]pyrrolo[1,2-a][1,4]diazacyclopentadecin-6-yl)carbamate] the same measures were 9.30 to 10.00 and 9.00 to 9.29.
Taken in the same sequence, the figures for `CCOc1cc2ccccc2c(O[C@@H]2C[C@H]3C(=O)N[C@]4(C(=O)NS(=O)(=O)C5(C)CC5)C[C@H]4/C=C\CC[C@H](C)C[C@@H](C)[C@H](NC(=O)OC(C)(C)C(F)(F)F)C(=O)N3C2)n1` [Compound 6099, 1,1,1-trifluoro-2-methylpropan-2-yl((2R,6S,7R,9S,13aS,14aR,16aS,Z)-2-((3-ethoxyisoquinolin-1-yl)oxy)-7,9-dimethyl-14a-(((1-methylcyclopropyl)sulfonyl)carbamoyl)-5,16-dioxo-1,2,3,5,6,7,8,9,10,11,13a,14,14a,15,16,16a-hexadecahydrocyclopropa[e]pyrrolo[1,2-a][1,4]diazacyclopentadecin-6-yl)carbamate] were 8.30 to 9.00 and 8.30 to 9.00.
Turning to `CCOc1cc2ccccc2c(O[C@@H]2C[C@H]3C(=O)N[C@]4(C(=O)NS(=O)(=O)C5(C)CC5)C[C@H]4/C=C\CC[C@@H](C)C[C@@H](C)[C@H](NC(=O)OC(C)(C)C(F)(F)F)C(=O)N3C2)n1` [Compound 6100, 1,1,1-trifluoro-2-methylpropan-2-yl((2R,6S,7R,9R,13aS,14aR,16aS,Z)-2-((3-ethoxyisoquinolin-1-yl)oxy)-7,9-dimethyl-14a-(((1-methylcyclopropyl)sulfonyl)carbamoyl)-5,16-dioxo-1,2,3,5,6,7,8,9,10,11,13a,14,14a,15,16,16a-hexadecahydrocyclopropa[e]pyrrolo[1,2-a][1,4]diazacyclopentadecin-6-yl)carbamate], the pEC50 is 9.30 to 10.00 in assay [1] and 8.30 to 9.00 in assay [2].
Taken in the same sequence, the figures for `CCOc1cc2ccccc2c(O[C@@H]2C[C@H]3C(=O)N[C@]4(C(=O)NS(=O)(=O)C5(C)CC5)C[C@H]4/C=C\CC[C@@H](C)C[C@@H](C)[C@H](NC(=O)OC(C)(C)C(C)(F)F)C(=O)N3C2)n1` [Compound 6102, 3,3-difluoro-2-methylbutan-2-yl((2R,6S,7R,9R,13aS,14aR,16aS,Z)-2-((3-ethoxyisoquinolin-1-yl)oxy)-7,9-dimethyl-14a-(((1-methylcyclopropyl)sulfonyl)carbamoyl)-5,16-dioxo-1,2,3,5,6,7,8,9,10,11,13a,14,14a,15,16,16a-hexadecahydrocyclopropa[e]pyrrolo[1,2-a][1,4]diazacyclopentadecin-6-yl)carbamate] were 9.30 to 10.00 and 9.00 to 9.29.
For `CC(C)Oc1cc2ccccc2c(O[C@@H]2C[C@H]3C(=O)N[C@]4(C(=O)NS(=O)(=O)C5(C)CC5)C[C@H]4/C=C\CC[C@@H](C)C[C@@H](C)[C@H](NC(=O)OC(C)(C)C(F)(F)F)C(=O)N3C2)n1` [Compound 6104, 1,1,1-trifluoro-2-methylpropan-2-yl((2R,6S,7R,9R,13aS,14aR,16aS,Z)-2-((3-isopropoxyisoquinolin-1-yl)oxy)-7,9-dimethyl-14a-(((1-methylcyclopropyl)sulfonyl)carbamoyl)-5,16-dioxo-1,2,3,5,6,7,8,9,10,11,13a,14,14a,15,16,16a-hexadecahydrocyclopropa[e]pyrrolo[1,2-a][1,4]diazacyclopentadecin-6-yl)carbamate] the same measures were 9.00 to 9.29 and 8.30 to 9.00.
For `CC(C)Oc1cc2ccccc2c(O[C@@H]2C[C@H]3C(=O)N[C@]4(C(=O)NS(=O)(=O)C5(C)CC5)C[C@H]4/C=C\CC[C@H](C)C[C@@H](C)[C@H](NC(=O)OC(C)(C)C(C)(F)F)C(=O)N3C2)n1` [Compound 6105, 3,3-difluoro-2-methylbutan-2-yl((2R,6S,7R,9S,13aS,14aR,16aS,Z)-2-((3-isopropoxyisoquinolin-1-yl)oxy)-7,9-dimethyl-14a-(((1-methylcyclopropyl)sulfonyl)carbamoyl)-5,16-dioxo-1,2,3,5,6,7,8,9,10,11,13a,14,14a,15,16,16a-hexadecahydrocyclopropa[e]pyrrolo[1,2-a][1,4]diazacyclopentadecin-6-yl)carbamate] the same measures were 8.30 to 9.00 and 7.46 to 8.30.
